Tested on: Lassa virus
Assay: Antiviral activity against LASV infected in human A549 cells
Format: functional, organism-based, Mammarenavirus lassaense
Conditions: Mammarenavirus lassaense, A549; read-out: IC50; call rule not given here

Compared with `O=C(c1cc2ccccc2s1)N1CC(=O)N(Cc2ccc(Cl)cc2)C(Cc2ccccc2)C1` (configuration not stated), `O=C(c1cc2ccccc2o1)N1CC(=O)N(Cc2ccc(Cl)cc2)C(Cc2ccccc2)C1` (configuration not stated) is 2.6-fold lower in IC50: 2100 nM for the first, 800 nM for the second.

First: Cc1ccc(CN2C(=O)CN(C(=O)c3ccc(C)cc3)CC2CCc2ccccc2)cc1 (configuration not stated)
Second: COc1ccc(C(=O)N2CC(=O)N(Cc3ccc(C)cc3)C(CCc3ccccc3)C2)cc1 (configuration not stated)
The IC50 of the first is 3-fold higher: 1200 nM for the first, 400 nM for the second. The second is the more potent here.

`COc1ccc(CN2C(=O)CN(C(=O)c3cc4ccccc4[nH]3)CC2CCc2ccccc2)cc1` (configuration not stated) and `COc1ccc(CN2C(=O)CN(C(=O)c3cc4ccccc4[nH]3)CC2Cc2ccccc2)cc1` (configuration not stated) are within 1.5-fold of each other in IC50: 1700 nM for the first, 1200 nM for the second.

First: COc1ccc(CN2C(=O)CN(C(=O)c3cc4ccccc4o3)CC2CCc2ccccc2)cc1 (configuration not stated)
Second: COc1ccc(CN2C(=O)CN(C(=O)c3cc4ccccc4o3)CC2Cc2ccccc2)cc1 (configuration not stated)
The IC50 of the first is 1.7-fold higher: 1000 nM for the first, 600 nM for the second. The second is the more potent here.

Compared with `Cc1ccc(CN2C(=O)CN(C(=O)c3cc4ccccc4o3)C[C@H]2Cc2ccccc2)cc1`, `Cc1ccc(CN2C(=O)CN(C(=O)c3cc4ccccc4o3)C[C@@H]2Cc2ccccc2)cc1` is 15-fold lower in IC50: 3000 nM for the first, 200 nM for the second.

`O=C(c1cc2ccccc2o1)N1CC(=O)N(Cc2cccc(C(F)(F)F)c2)C(Cc2ccccc2)C1` (configuration not stated) and `CCC1CN(C(=O)c2cc3ccccc3o2)CC(=O)N1Cc1cccc(C(F)(F)F)c1` (configuration not stated) are within 1.5-fold of each other in IC50: 1800 nM for the first, 1600 nM for the second.

Compared with `COc1ccc(CN2C(=O)CN(C(=O)c3cc4ccccc4s3)CC2CCc2ccccc2)cc1` (configuration not stated), `Cc1ccc(CN2C(=O)CN(C(=O)c3cc4ccccc4o3)CC2Cc2ccccc2)cc1` (racemic) is 1.6-fold higher in IC50: 500 nM for the first, 800 nM for the second.

First: Cc1ccc(CN2C(=O)CN(Cc3cc4ccccc4o3)C[C@@H]2Cc2ccccc2)cc1
Second: Cc1ccc(CN2CCN(C(=O)c3cc4ccccc4o3)C[C@@H]2Cc2ccccc2)cc1
The IC50 of the first is 3.2-fold higher: 10000 nM for the first, 3100 nM for the second. The second is the more potent here.

For `CCC1CN(C(=O)c2cc3ccccc3[nH]2)CC(=O)N1Cc1cccc(C(F)(F)F)c1` (configuration not stated), the IC50 was 2400 nM.

Same assay, conditions: a549

For `Cc1ccc(CN2C(=O)CNC[C@@H]2Cc2ccccc2)cc1`, the IC50 was “Not Active”.
In the case of `O=C(c1cc2ccccc2o1)N1CCN[C@@H](Cc2ccccc2)C1`, the IC50 is reported as “Not Active”.

Tested on: not listed separately
Assay: Inhibition of JUNV envelope glycoprotein-mediated late endosomal pH-dependent membrane fusion by cell-cell fusion reporter assay
Conditions: Mammarenavirus juninense

`COc1ccc(CN2C(=O)CN(C(=O)c3cc4ccccc4o3)CC2CCc2ccccc2)cc1` (configuration not stated) and `COc1ccc(CN2C(=O)CN(C(=O)c3cc4ccccc4s3)CC2CCc2ccccc2)cc1` (configuration not stated) are the same in IC50: 200 nM for the first, 200 nM for the second.

`Cc1ccc(CN2C(=O)CN(C(=O)c3cc4ccccc4o3)CC2Cc2ccccc2)cc1` (racemic) showed an IC50 of 200 nM.
